Results reported in patent publication US6911430B2, “Compositions and methods for treating ileus” (VipoGen, LLC, priority 2003, dated 2005).
Ends that are not written are not given here.

Test system: Male Wistar rats
Assay: Intestinal transit of Evans blue after laparotomy and manipulation of the intestines (postoperative ileus model)
Assay type: in vivo, rat
Conditions: single peptide approx. 150 μg per kg i.v. tail vein bolus 1 minute before surgery, skin incision, 20 minute transit period, mean
Procedure: Male Wistar rats are commonly used to study the mechanisms that regulate gastrointestinal function by several laboratories across the United States and the world. This model is well characterized experimentally and has the added advantage of providing results in a short time frame, limiting the animal's distress.
Two hours prior to start of surgery, the required amount of peptide was measured to the nearest […] and placed into 0.5 ml saline. The suspension was then vortexed for 1 minute and then incubated at room temperature for one hour after. The solution was kept refrigerated until 30 minutes before the onset of surgery. The solution was allowed to warm to room temperature for 30 minutes prior to the surgery. Following this warming period, the solution was placed into a 1 cc insulin syringe for tail vein injection 1 minute prior to surgery.
Male Wistar rats (150-250 g) were fasted for 48 hours with free access to water. This fast was necessary to empty the gastrointestinal tract so that the Evans Blue introduced after the surgery could be accurately tracked. The rats were divided into groups in a randomized way. The randomized groups were then given isoflorane anesthesia, followed by clearing of the abdominal area with 10% antibacterial iodine solution and alcohol and shaving prior to surgery. Isoflorane was administered continuously (3-5%) using a vaporizer. […] Diethyl ether can also be used for anesthesia.
Thereafter, the rats received an i.v. injection (VIP receptor antagonists, PACAP receptor antagonists, or combination thereof were delivered in saline) in the tail vein of the appropriate drug or control for its group one minute before the operation. The peptides included VIP (10-28) and PACAP (6-38). The dosage amount of each peptide administered was approximately 150 μg per kg body weight. For the combination treatment a ratio of 1:1 of a PACAP receptor antagonist to VIP receptor antagonists was used, the total peptide amount being approximately 300 μg per kg body weight. The peptide dosages were consistent animal to animal throughout the study and were administered by bolus injections.
All groups underwent a laparotomy consisting of the incision of the abdominal skin, abdominal muscle layers and peritoneum. The laparatomy was followed by evisceration and manipulation of the small intestine and the caecum. In these experiments, the caecum and small intestine were gently pulled out of the abdominal cavity, unfurled like a fan and exposed on two sterile gauzes covering the abdomen of the rat. […]
Twenty minutes later, the rats were euthanized by an overdose pentobarbital (150 mg/kg i.v. tail vein) and the intestinal transit was measured from the pylorus to the most distal point of the migration of Evans blue and expressed in cm.

Substance	% of the intestinal length traversed by Evan's Blue [%]	intestinal motility: distance Evan's Blue traveled through the intestines [cm]
VIP(10-28) (YTRLRKQMAVKKYLNSILN; listed as Homo sapiens) [VIP-RA]	31	26
PACAP(6-38) (FTDSYSRYRKQMAVKKYLAAVLGKRYKQRVKNK; ends and bridges not checked; listed as Homo sapiens) [PACAP-RA]	32	23
